According to ChEMBL document CHEMBL1132960, “Consensus bioactive conformation of cyclic GnRH antagonists defined by NMR and molecular modeling” (J Med Chem, 2000):
Each block holds one molecule with its values, some of them ahead of it. Where a SMILES comes first, the peptide text is derived from it. Bridges are numbered along the chain shown (N, C = ends). [ ]: non-standard residue; d: D form. dPhe(4-Cl) = N[C@H](Cc1ccc(Cl)cc1)C(=O)O; d2Nal = N[C@H](Cc1ccc2ccccc2c1)C(=O)O; d3Pal = N[C@H](Cc1cccnc1)C(=O)O; NMeL = CN[C@@H](CC(C)C)C(=O)O; ΔPro = O=C(O)[C@@H]1C=CCN1; Dab = NCC[C@H](N)C(=O)O; Dap = NC[C@H](N)C(=O)O; βAla = NCCC(=O)O

Key:
Rattus norvegicus [1] = organism: Rattus norvegicus; assay: Number of rats ovulating over total at a dose of 1000 ug/rat (5/8); assay type: functional
Rattus norvegicus [2] = organism: Rattus norvegicus; assay: Number of rats ovulating over total at a dose of 5 ug/rat (3/20); assay type: functional
Rattus norvegicus [3] = organism: Rattus norvegicus; assay: Number of rats ovulating over total at a dose of 10 ug/rat (2/20); assay type: functional
[4] = biological target: T1, Gonadotropin-releasing hormone receptor (Homo sapiens, UniProt P30968); assay: Binding affinity towards Gonadotropin-releasing hormone receptor
T1 sequence (P30968 whole entry): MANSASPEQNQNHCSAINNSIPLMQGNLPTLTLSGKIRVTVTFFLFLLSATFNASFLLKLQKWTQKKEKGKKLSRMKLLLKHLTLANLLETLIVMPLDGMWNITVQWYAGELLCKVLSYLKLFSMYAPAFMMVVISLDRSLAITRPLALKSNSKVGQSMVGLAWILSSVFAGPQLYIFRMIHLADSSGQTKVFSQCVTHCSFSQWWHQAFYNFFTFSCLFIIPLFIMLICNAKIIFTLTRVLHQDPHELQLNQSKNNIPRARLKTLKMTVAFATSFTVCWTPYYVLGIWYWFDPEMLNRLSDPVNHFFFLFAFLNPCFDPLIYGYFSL

Rattus norvegicus [5] = organism: Rattus norvegicus; assay: Number of rats ovulating over total at a dose of 2.5 ug/rat (2/8); assay type: functional
Rattus norvegicus [6] = organism: Rattus norvegicus; assay: Number of rats ovulating over total at a dose of 5 ug/rat (2/8); assay type: functional

SMILES: CC(C)C[C@H]1C(=O)N[C@@H](CCCN=C(N)N)C(=O)N2CCC[C@H]2C(=O)NCCC(=O)N2CC=C[C@H]2C(=O)N[C@H](Cc2ccc(Cl)cc2)C(=O)N[C@H](Cc2c[nH]c3ccccc23)C(=O)N[C@@H](CO)C(=O)N[C@@H](Cc2ccc(O)cc2)C(=O)N[C@H](Cc2c[nH]c3ccccc23)C(=O)N1C (cyclo([NMeL]RP[βAla][ΔPro][dPhe(4-Cl)][dW]SY[dW]))
No. of rats (Rattus norvegicus [1]): 5

SMILES: CC(=O)N[C@H](Cc1ccc2ccccc2c1)C(=O)N[C@H](Cc1ccc(Cl)cc1)C(=O)N[C@H](Cc1c[nH]c2ccccc12)C(=O)N[C@H]1CC(=O)NC[C@@H](C(N)=O)NC(=O)[C@@H]2CCCN2C(=O)[C@@H]2CCCCNC(=O)CC[C@H](NC1=O)C(=O)N[C@H](CCCN=C(N)N)C(=O)N[C@@H](CC(C)C)C(=O)N2 (Ac-[d2Nal][dPhe(4-Cl)][dW]DE[dR]LKP[Dap]-NH2; lactam 4-10, 5-8) [listing 1 of 2 here]
No. of rats (Rattus norvegicus [2]): 3

SMILES: CC(=O)N1CC=C[C@H]1C(=O)N[C@H](Cc1ccc(F)cc1)C(=O)N[C@H](Cc1c[nH]c2ccccc12)C(=O)N[C@H]1CC(=O)NC[C@@H](C(N)=O)NC(=O)[C@@H]2CCCN2C(=O)[C@H](CCCN=C(N)N)NC(=O)[C@H](CC(C)C)NC(=O)[C@@H](Cc2ccc3ccccc3c2)NC(=O)[C@H](Cc2ccc(O)cc2)NC1=O
No. of rats (Rattus norvegicus [3]): 2

Ki [4]: 320 pM
SMILES: CC(=O)N[C@H](Cc1ccc2ccccc2c1)C(=O)N[C@H](Cc1ccc(Cl)cc1)C(=O)N[C@H](Cc1c[nH]c2ccccc12)C(=O)N[C@H]1CC(=O)NC[C@@H](C(N)=O)NC(=O)[C@@H]2CCCN2C(=O)[C@@H]2CCCCNC(=O)CC[C@H](NC1=O)C(=O)N[C@H](CCCN=C(N)N)C(=O)N[C@@H](CC(C)C)C(=O)N2 (Ac-[d2Nal][dPhe(4-Cl)][dW]DE[dR]LKP[Dap]-NH2; lactam 4-10, 5-8) [listing 2 of 2 here]

SMILES: CC(=O)N[C@H]1CCC(=O)NCC(=O)NCC[C@@H]2NC(=O)[C@H](CC(=O)NC[C@@H](C(N)=O)NC(=O)[C@@H]3CCCN3C(=O)[C@H](CCCN=C(N)N)NC(=O)[C@H](CC(C)C)NC(=O)[C@@H](Cc3ccc4ccccc4c3)NC2=O)NC(=O)[C@@H](Cc2c[nH]c3ccccc23)NC(=O)[C@@H](Cc2ccc(Cl)cc2)NC1=O
No. of rats (Rattus norvegicus [5]): 2

SMILES: CC(=O)N[C@H](Cc1ccc2ccccc2c1)C(=O)N[C@H](Cc1ccc(Cl)cc1)C(=O)N[C@H](Cc1cccnc1)C(=O)N[C@H]1CC(=O)NC[C@@H](C(N)=O)NC(=O)[C@@H]2CCCN2C(=O)[C@@H]2CCNC(=O)CNC(=O)CC[C@H](NC1=O)C(=O)N[C@H](CCCN=C(N)N)C(=O)N[C@@H](CC(C)C)C(=O)N2 (Ac-[d2Nal][dPhe(4-Cl)][d3Pal]DE[dR]L[Dab]P[Dap]-NH2; lactam 4-10; linker 5-8 via G) [listing 1 of 2 here]
No. of rats (Rattus norvegicus [6]): 2

Ki [4]: 140 pM
SMILES: CC(=O)N[C@H](Cc1ccc2ccccc2c1)C(=O)N[C@H](Cc1ccc(Cl)cc1)C(=O)N[C@H](Cc1cccnc1)C(=O)N[C@H]1CC(=O)NC[C@@H](C(N)=O)NC(=O)[C@@H]2CCCN2C(=O)[C@@H]2CCNC(=O)CNC(=O)CC[C@H](NC1=O)C(=O)N[C@H](CCCN=C(N)N)C(=O)N[C@@H](CC(C)C)C(=O)N2 (Ac-[d2Nal][dPhe(4-Cl)][d3Pal]DE[dR]L[Dab]P[Dap]-NH2; lactam 4-10; linker 5-8 via G) [listing 2 of 2 here]
